Assay results reported in patent publication US11896678B2, “Compositions and methods for treatment of peroxisome proliferator-activated receptor gamma (PPARG) activated cancer” (THE BROAD INSTITUTE, INC., priority 2017, dated 2024).

Columns and labels:
UM-UC-9 cells [1] = assay: Kinetic proliferation assay (IncuCyte), percent of DMSO control; format: cell-based, human; conditions: 100 nmol/L; DMSO control at 50% confluency
Description: This assay was expanded to include an additional 8 representative bladder cancer cell lines, including cell lines with PPARG amplification, RXRA p.S427F mutation, activated gene signature, and control cell lines with low level expression of PPARG and target genes. […] Representative data for the UM-UC-9 cell line are shown in FIG. 6B, and is tabulated for the tested bladder cancer cell lines in Table 1. […] Similar results were obtained with these cell lines in parallel studies using clonogenic assays to quantify colony-forming ability (FIG. 10).
Proliferation Assays: To enable cell-counting experiments, cell lines were transduced with a lentiviral vector encoding nuclear-targeted GFP, TagGFP2-H2B (Evrogen), and stable pools generated following selection for puromycin resistance. […] For kinetic proliferation assays, 96-well plates (n 1% 4 per condition) were imaged and counted every two hours using IncuCyte Zoom (Essen BioScience). […] For endpoint assays to measure dose-response, cells were plated in 384-well plates, dosed with compound, and upon reaching approximately 70% to 90% confluence in control wells, cells were either counted using fluorescence imaging (Incu-Cyte Zoom) or incubated with CyQuant (Thermo Fisher) at the indicated time and plates were read with a fluorescent plate reader.

UM-UC-9 cells [2] = assay: Direct cell counting dose-response proliferation assay; format: cell-based, human
Method: To determine whether PPARG modulators affect the proliferation and/or viability of PPARG-activated bladder cancer cell lines, a direct cell counting-based assay was performed. This assay likely avoids potential artifacts associated with the use of an ATP content-based assay, given that PPAR modulators are known to regulate cellular metabolic activity. […] These IC50 values align well with the calculated IC50s from both the cell-based reporter gene assay (FIG. 8A) and the biochemical corepressor assay (FIG. 8D).
(§1) Proliferation Assays: To enable cell-counting experiments, cell lines were transduced with a lentiviral vector encoding nuclear-targeted GFP, TagGFP2-H2B (Evrogen), and stable pools generated following selection for puromycin resistance. Cell lines were maintained for at least 7 days following selection prior to expansion and seeding into 96- or 384-well plates for further analysis. For kinetic proliferation assays, 96-well plates (n 1% 4 per condition) were imaged and counted every two hours using IncuCyte Zoom (Essen BioScience). Media and compounds were replaced approximately every 3-4 days. For endpoint assays to measure dose-response, cells were plated in 384-well plates, dosed with compound, and upon reaching approximately 70% to 90% confluence in control wells, cells were either counted using fluorescence imaging (Incu-Cyte Zoom) or incubated with CyQuant (Thermo Fisher) at the indicated time and plates were read with a fluorescent plate reader.

[3] = test system: PPARG-activated bladder cancer cell lines; assay: Proliferation assays in PPARG-activated bladder cancer cell lines; format: cell-based, human; conditions: 100 nM-500 nM
Method: A panel of bladder cancer cell lines with PPARG modulators in colony formation assays was then tested (FIG. 10), kinetic proliferation assays (IncuCyte Zoom; Essen Bioscience) using cell lines treated with a single concentration of compound (100 nM-500 nM), and end-point dose-response assays (CellTiter Glo or CyQuant).
This assay was expanded to include an additional 8 representative bladder cancer cell lines, including cell lines with PPARG amplification, RXRA p.S427F mutation, activated gene signature, and control cell lines with low level expression of PPARG and target genes. […] Representative data for the UM-UC-9 cell line are shown in FIG. 6B, and is tabulated for the tested bladder cancer cell lines in Table 1. […] This significant (P<0.01) preferential sensitivity to PPARG inverse-agonists, but not antagonists, is maintained across all of the PPARG-activated cell lines in the panel, including the RXRA p.S427F cell line, HT-1197 (41), the PPARG-amplified cell lines, 5637 and UM-UC-9, and the PPARG activation gene signature cell lines Cal29, UM-UC-1, and RT112/84 (FIG. 12). […] Similar results were obtained with these cell lines in parallel studies using clonogenic assays to quantify colony-forming ability (FIG. 10).
as §1

PPARG = biological target: T1, PPARG (Homo sapiens, UniProt P37231); assay: RT112/84 FABP4-NLucP reporter gene assay, unstimulated; format: cell-based
T1 construct: endogenous in cells; host or cells: RT112/84 bladder cancer cells (FABP4-NLucP knock-in clone)
T1 sequence (P37231 1-477 isoform P37231-2): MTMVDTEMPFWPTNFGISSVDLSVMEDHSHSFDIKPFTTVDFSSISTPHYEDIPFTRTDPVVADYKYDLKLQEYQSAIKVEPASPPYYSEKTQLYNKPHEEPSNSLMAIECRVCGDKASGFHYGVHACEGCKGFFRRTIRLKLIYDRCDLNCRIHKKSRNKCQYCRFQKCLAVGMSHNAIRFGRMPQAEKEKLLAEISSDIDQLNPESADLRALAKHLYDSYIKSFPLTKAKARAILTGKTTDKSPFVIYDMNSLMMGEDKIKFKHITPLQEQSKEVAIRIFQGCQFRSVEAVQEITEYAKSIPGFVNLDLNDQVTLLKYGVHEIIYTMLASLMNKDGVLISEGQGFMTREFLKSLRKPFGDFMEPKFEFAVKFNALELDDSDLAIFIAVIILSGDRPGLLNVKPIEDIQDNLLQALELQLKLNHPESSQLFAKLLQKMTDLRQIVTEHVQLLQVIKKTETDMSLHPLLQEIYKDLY
Description: Next, a PPARG reporter cell line was engineered to enable higher throughput assays to evaluate PPARG transactivation. Briefly, a destabilized NanoLuc luciferase reporter gene was inserted into the 3′-UTR of the FABP4 gene in the RT112/84 bladder cancer cell line using CRISPR/Cas9 mediated homology-directed repair (FIG. 4A).
RT112-FABP4-NLucP Reporter Gene Assay: Reporter cell line was generated by engineering NanoLuc gene into the 3′ UTR of FABP4 in RT112/84 cells using CRISPR/Cas9 guided genome engineering. Single cell clones were generated and the clone with the widest dynamic range selected for use. Assays were performed by seeding 384-well plates with ˜10,000 cells per well in MEMalpha containing 10% FBS and dosing compounds at indicated concentration using HP D300 digital dispenser (HP/Tecan). 18-24 hours after dosing with compound, cells were assayed using NanoGlo Luciferase Assay Reagent (Promega Madison, WI) and plates were read using EnVision Multilabel Reader (PerkinElmer Waltham, MA).

[4] = biological target: T2, PPARG ligand-binding domain - TRAP220/MED1 coactivator peptide (Homo sapiens, UniProt P37231); assay: TR-FRET coactivator assay, TRAP220/MED1 peptide; format: biochemical
T2 construct: purchased ThermoFisher Scientific
T2 sequence (P37231 238-503 limits assumed): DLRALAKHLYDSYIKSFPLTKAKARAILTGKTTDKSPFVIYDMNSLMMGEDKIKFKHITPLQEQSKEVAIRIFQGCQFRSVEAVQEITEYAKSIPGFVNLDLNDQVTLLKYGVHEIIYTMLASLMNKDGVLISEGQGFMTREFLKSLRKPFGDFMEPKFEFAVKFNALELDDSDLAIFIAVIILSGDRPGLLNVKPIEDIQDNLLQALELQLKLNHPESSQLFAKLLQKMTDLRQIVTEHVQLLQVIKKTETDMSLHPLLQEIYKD

[5] = biological target: T3, PPARG ligand-binding domain - NCoR/NCOR1 corepressor peptide (Homo sapiens, UniProt P37231); assay: TR-FRET corepressor assay, NCoR/NCOR1 peptide; format: biochemical; conditions: data not shown
T3 construct: purchased ThermoFisher Scientific
T3 sequence (P37231 238-503 limits assumed): T2 sequence (P37231 238-503 limits assumed)
Method: To evaluate inverse-agonism, a TR-FRET PPARG co-repressor assay (ThermoFisher) that measures recruitment of a fluorescent NCOR1 or NCOR2 corepressor peptide to the PPARG ligand-binding domain was used (ThermoFisher).
In addition to the PPARG-NCOR2 interaction assay described above, interactions between PPARG and a peptide from the corepressor NCOR1 were measured.

effect on unstimulated reporter (PPARG): minimal detectable effect | effect in coactivator assay [4]: minimal effect | induced signal [5]: 2.5 fold
Compound: O=C(Nc1ccccc1)c1cc([N+](=O)[O-])ccc1Cl [GW9662]
effect on proliferation relative to control (UM-UC-9 cells [1]): no effect | effect on cell proliferation compared with DMSO control (UM-UC-9 cells [2]): no significant effects | sensitivity of cell lines [3]: not sensitive
